We go through 26 compounds from ChEMBL document CHEMBL3217649, “Synthesis of new N-substituted aminoquercitols from naturally available (+)-proto-quercitol and their -glucosidase inhibitory activity” (Medchemcomm, 2012).

Experiment [1] addresses Sucrase-isomaltase, intestinal (Rattus norvegicus) (UniProt P23739). In words: Inhibition of sucrase in rat small intestine using sucrose as substrate at 1 mg/ml after 40 mins by microplate reader analysis.
The subject of experiment [2] is Saccharomyces cerevisiae. Briefly: Inhibition of baker's yeast type 1 alpha-glucosidase using p-nitrophenyl-alpha-D-glucopyranoside as substrate at 10 mg/ml incubated for 10 mins prior to substrate challenge for 20 mins by microplate reader analysis.
A short description of experiment [3]: Inhibition of type 2 alpha-glucosidase in rat small intestine using maltose as substrate after 10 mins by microplate reader analysis.
Experiment [4] can be described thus: Inhibition of baker's yeast type 1 alpha-glucosidase using p-nitrophenyl-alpha-D-glucopyranoside as substrate incubated for 10 mins prior to substrate challenge for 20 mins by microplate reader analysis. More on the design: species or system Saccharomyces cerevisiae.
Experiment [5] deals with Sucrase-isomaltase, intestinal (Rattus norvegicus, UniProt P23739). Briefly: Inhibition of sucrase in rat small intestine using sucrose as substrate after 40 mins by microplate reader analysis.
Sequence of Sucrase-isomaltase, intestinal (P23739 1-1013 limits assumed): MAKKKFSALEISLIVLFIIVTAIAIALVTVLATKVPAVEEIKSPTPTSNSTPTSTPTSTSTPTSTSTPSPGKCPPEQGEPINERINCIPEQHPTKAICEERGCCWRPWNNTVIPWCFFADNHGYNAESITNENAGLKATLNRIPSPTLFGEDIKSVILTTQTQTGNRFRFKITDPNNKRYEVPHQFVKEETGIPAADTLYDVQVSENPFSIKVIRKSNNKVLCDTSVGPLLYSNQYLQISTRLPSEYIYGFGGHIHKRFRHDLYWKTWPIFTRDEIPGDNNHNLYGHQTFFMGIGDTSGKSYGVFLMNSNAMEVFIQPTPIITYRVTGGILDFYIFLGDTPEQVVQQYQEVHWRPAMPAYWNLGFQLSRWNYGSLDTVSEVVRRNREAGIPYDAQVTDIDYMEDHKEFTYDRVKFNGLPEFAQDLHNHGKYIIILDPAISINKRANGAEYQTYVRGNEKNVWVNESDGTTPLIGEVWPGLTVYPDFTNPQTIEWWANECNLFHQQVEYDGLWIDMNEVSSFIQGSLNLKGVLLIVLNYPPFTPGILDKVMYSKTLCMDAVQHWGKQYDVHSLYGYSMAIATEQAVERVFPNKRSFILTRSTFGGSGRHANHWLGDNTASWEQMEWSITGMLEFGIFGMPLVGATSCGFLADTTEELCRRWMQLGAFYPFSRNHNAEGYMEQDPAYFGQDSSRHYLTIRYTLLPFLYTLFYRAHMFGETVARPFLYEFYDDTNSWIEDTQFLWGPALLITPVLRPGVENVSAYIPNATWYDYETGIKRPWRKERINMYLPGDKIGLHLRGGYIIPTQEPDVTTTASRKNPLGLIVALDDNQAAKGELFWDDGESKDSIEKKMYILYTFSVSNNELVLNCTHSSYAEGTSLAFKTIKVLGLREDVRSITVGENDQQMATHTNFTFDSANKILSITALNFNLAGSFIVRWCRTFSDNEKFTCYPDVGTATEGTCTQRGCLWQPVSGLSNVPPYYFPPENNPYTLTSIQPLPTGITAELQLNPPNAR
Sequence of Sucrase-isomaltase, intestinal (P23739 1014-1841 limits assumed): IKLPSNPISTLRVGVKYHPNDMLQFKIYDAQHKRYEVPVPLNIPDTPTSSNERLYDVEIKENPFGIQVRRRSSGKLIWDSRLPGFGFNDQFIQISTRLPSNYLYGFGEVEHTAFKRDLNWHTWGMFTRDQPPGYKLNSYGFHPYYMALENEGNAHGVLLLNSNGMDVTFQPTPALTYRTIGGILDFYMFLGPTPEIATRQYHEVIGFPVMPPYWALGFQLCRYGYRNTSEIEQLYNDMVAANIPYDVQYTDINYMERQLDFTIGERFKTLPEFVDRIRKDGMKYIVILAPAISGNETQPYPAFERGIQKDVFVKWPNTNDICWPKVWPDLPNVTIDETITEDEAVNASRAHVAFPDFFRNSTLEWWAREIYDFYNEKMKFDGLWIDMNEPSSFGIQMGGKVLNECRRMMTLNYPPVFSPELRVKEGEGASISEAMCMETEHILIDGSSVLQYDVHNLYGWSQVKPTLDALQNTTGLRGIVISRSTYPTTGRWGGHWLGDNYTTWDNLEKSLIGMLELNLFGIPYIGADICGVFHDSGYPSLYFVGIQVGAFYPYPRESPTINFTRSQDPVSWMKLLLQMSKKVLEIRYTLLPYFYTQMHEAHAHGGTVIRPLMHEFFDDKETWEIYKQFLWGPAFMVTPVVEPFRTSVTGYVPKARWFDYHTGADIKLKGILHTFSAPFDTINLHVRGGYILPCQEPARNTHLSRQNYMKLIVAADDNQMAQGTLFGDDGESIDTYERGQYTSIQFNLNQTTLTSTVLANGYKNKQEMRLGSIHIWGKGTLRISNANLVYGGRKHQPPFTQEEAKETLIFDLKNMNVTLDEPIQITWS
Experiment [6] is filed under the species Rattus norvegicus. Briefly: Inhibition of type 2 alpha-glucosidase in rat small intestine using maltose as substrate at 1 mg/ml after 10 mins by microplate reader analysis.
Experiment [7] relates to Saccharomyces cerevisiae. Briefly: Ratio of acarbose IC50 to compound IC50 for baker's yeast type 1 alpha-glucosidase.
Experiment [8] can be described thus: Inhibition of maltase in rat small intestine using maltose as substrate by Lineweaver-Burk plot based secondary replot analysis. Type of experiment: tissue-based.
Experiment [9] is filed under the species Rattus norvegicus. In words: Competitive inhibition of maltase in rat small intestine using maltose as substrate by Lineweaver-Burk plot analysis.
Experiment [10] is filed under the species Rattus norvegicus. In words: Ratio of acarbose IC50 to compound IC50 for type 2 alpha-glucosidase in rat small intestine.

Active and inactive are the calls of the source. No cut-off for these calls is given here.

Sequence of Sucrase-isomaltase, intestinal (Rattus norvegicus) (P23739 1-1013 limits assumed): as the sequence (P23739 1-1013 limits assumed) above
Sequence of Sucrase-isomaltase, intestinal (Rattus norvegicus) (P23739 1014-1841 limits assumed): as the sequence (P23739 1014-1841 limits assumed) above

The inhibition is the drop in the measured response relative to a control, in per cent. A higher inhibition goes with a strong effect. The IC50 is the concentration that gives 50% inhibition. In the case of `CCCCCCCCCCCC(=O)N[C@@H]1C[C@@H](O)[C@H](O)[C@@H](O)[C@H]1O`, the inhibition (in experiment [1]; in the experiment on Saccharomyces cerevisiae [2]) was < 30% in each case. In addition, in experiment [3], half-maximal inhibition (IC50) was put at 7.4 µM.

As to `CCCC(=O)N[C@@H]1C[C@@H](O)[C@H](O)[C@@H](O)[C@H]1O`, the values for the half-inhibitory concentration (IC50) in experiment [4], in experiment [3] and in [5] were 1200 µM, 19 µM and 4.7 µM, respectively.

In the case of `CCN(CC)[C@H]1C[C@@H](O)[C@H](O)[C@@H](O)[C@H]1O`, the IC50 in experiment [4] stood at 1600 µM; in [3], 21 µM; in experiment [5], 360 µM.

As for `CC(=O)N[C@H]1C[C@@H](O)[C@H](O)[C@@H](O)[C@H]1O`, the inhibition in experiment [1] was < 30%. Moreover, the IC50 is 270 µM in experiment [4] and 180 µM in experiment [3].

As to `CCCCCCCCCCCC(=O)N[C@H]1C[C@@H](O)[C@H](O)[C@@H](O)[C@H]1O`, the inhibition (in [1]; with Saccharomyces cerevisiae [2]) was < 30% in each case. In experiment [3], the IC50 is 10 µM.

For `CCN[C@H]1C[C@@H](O)[C@H](O)[C@@H](O)[C@H]1O`, the values for the inhibition (in experiment [1]; in the experiment with Saccharomyces cerevisiae [2]; in the experiment filed under Rattus norvegicus [6]) were < 30%, < 30% and 30%, respectively.

For the compound `CC(=O)N[C@@H]1C[C@@H](O)[C@H](O)[C@@H](O)[C@H]1O`, the IC50 in experiment [4] stood at 150 µM; in experiment [3], 5.3 µM; in [5] it was 5.3 µM. In the experiment on Saccharomyces cerevisiae [7], the Ratio IC50 is 3.

Consider `CCCCCC(=O)N[C@@H]1C[C@@H](O)[C@H](O)[C@@H](O)[C@H]1O`, for which the IC50 in [4] was found to be 1700 µM; in [3] it was 3.8 µM; in experiment [5] it was 6.1 µM.

By Ki is commonly meant a dissociation constant, usually derived from enzyme kinetics or from competition with a known ligand. A low value points to tighter binding. As for `CCN(CC)[C@@H]1C[C@@H](O)[C@H](O)[C@@H](O)[C@H]1O`, the inhibition in [1] is < 30%. This compound also had a Ki in [8] of 3.5 µM. Also, the IC50 in [4] was found to be 1600 µM; in experiment [3] it was 5 µM. For the same compound, in the experiment filed under Rattus norvegicus [9], the “competitive inhibition (Lineweaver-Burk)” value is “Active”.

Take `CCCCCCCCCCN[C@H]1C[C@@H](O)[C@H](O)[C@@H](O)[C@H]1O`: the inhibition in the experiment on Saccharomyces cerevisiae [2] is < 30%. The results for the IC50 in [3] and in experiment [5] were 2 µM and 410 µM, respectively.

Consider `CCCCN[C@H]1C[C@@H](O)[C@H](O)[C@@H](O)[C@H]1O`, for which the inhibition (in experiment [1]; in the experiment on Saccharomyces cerevisiae [2]) was < 30% in each case. Inhibition in experiment [3] was half-maximal at 290 µM (IC50).

Turning to `CCCCCCN[C@H]1C[C@@H](O)[C@H](O)[C@@H](O)[C@H]1O`, the inhibition (in [1]; in the experiment with Saccharomyces cerevisiae [2]) was < 30% each time. Besides, half-maximal inhibition in [3] (IC50) was put at 2.5 µM.

In the case of `CCCCCCCCCCCCN[C@@H]1C[C@@H](O)[C@H](O)[C@@H](O)[C@H]1O`, the inhibition (in experiment [1]; in the experiment on Saccharomyces cerevisiae [2]) was < 30% in each case. In [3], this compound yielded an IC50 of 1.5 µM.

On to `CCCCCCN[C@@H]1C[C@@H](O)[C@H](O)[C@@H](O)[C@H]1O`, for which, in experiment [1], the inhibition is < 30%. The compound further displayed a Ki in [8] of 0.73 µM. Besides, the Ratio IC50 in the experiment filed under Rattus norvegicus [10] is 3. In addition, the values for the half-inhibitory concentration (IC50) in [4] and in [3] were 400 µM and 0.24 µM, respectively. For the same compound, the “competitive inhibition (Lineweaver-Burk)” value in the experiment listed under Rattus norvegicus [9] is “Active”.

In the case of `CCCCN(CCCC)[C@@H]1C[C@@H](O)[C@H](O)[C@@H](O)[C@H]1O`, the inhibition in [1] was < 30%. Also, the IC50 in experiment [4] worked out at 1800 µM; in [3], 7.6 µM.

For the compound `CCCCCCCCCCCCN[C@H]1C[C@@H](O)[C@H](O)[C@@H](O)[C@H]1O`, the inhibition (in experiment [1]; with Saccharomyces cerevisiae [2]) was < 30% in each case. The compound also yielded an IC50 in [3] of 1.9 µM.

With `CCCCN(CCCC)[C@H]1C[C@@H](O)[C@H](O)[C@@H](O)[C@H]1O`, the results for the 50% inhibitory concentration (IC50) in [4], in experiment [3] and in [5] were 2300 µM, 24 µM and 36 µM, respectively.

For `CCCCCCCCCC(=O)N[C@@H]1C[C@@H](O)[C@H](O)[C@@H](O)[C@H]1O`, the inhibition (in experiment [1]; in the experiment on Saccharomyces cerevisiae [2]) was < 30% each time. The IC50 in experiment [3] was found to be 3.5 µM.

As to `CCCCN[C@@H]1C[C@@H](O)[C@H](O)[C@@H](O)[C@H]1O`, in experiment [1], the inhibition is < 30%. The IC50 turned out to be 1200 µM in [4] and 57 µM in experiment [3].

As for `CCCC(=O)N[C@H]1C[C@@H](O)[C@H](O)[C@@H](O)[C@H]1O`, the inhibition (in experiment [1]; with Saccharomyces cerevisiae [2]) was < 30% each time. 38 µM corresponded to half-maximal inhibition in experiment [3] (IC50).

Take `CCCCCCCCCCN[C@@H]1C[C@@H](O)[C@H](O)[C@@H](O)[C@H]1O`: the inhibition (in experiment [1]; in the experiment on Saccharomyces cerevisiae [2]) was < 30% in each case. Besides, the Ratio IC50 in the experiment listed under Rattus norvegicus [10] is 3. Besides, the IC50 in experiment [3] stood at 0.41 µM.

As for `CCCCCCN(CCCCCC)[C@H]1C[C@@H](O)[C@H](O)[C@@H](O)[C@H]1O`, the inhibition in the experiment with Saccharomyces cerevisiae [2] is < 30%. In addition, the IC50 in [3] was found to be 32 µM; in [5] it was 120 µM.

Regarding `CCCCCC(=O)N[C@H]1C[C@@H](O)[C@H](O)[C@@H](O)[C@H]1O`, the inhibition (in [1]; with Saccharomyces cerevisiae [2]) was < 30% each time. In [3], this compound gave an IC50 of 4.2 µM.

In the case of `CCCCCCN(CCCCCC)[C@@H]1C[C@@H](O)[C@H](O)[C@@H](O)[C@H]1O`, the inhibition (in experiment [1]; in the experiment on Saccharomyces cerevisiae [2]) was < 30% in each case. The compound further returned an IC50 in [3] of 48 µM.

For the compound `CCCCCCCCCC(=O)N[C@H]1C[C@@H](O)[C@H](O)[C@@H](O)[C@H]1O`, the inhibition (in experiment [1]; in the experiment on Saccharomyces cerevisiae [2]) was < 30% in each case. This compound also displayed a Ki in experiment [8] of 1.5 µM. Further, the “competitive inhibition (Lineweaver-Burk)” value in the experiment filed under Rattus norvegicus [9] is “Active”. This compound showed an IC50 in experiment [3] of 2 µM.

In [8], `C[C@H]1O[C@H](O[C@H]2[C@H](O)[C@@H](O)[C@@H](O[C@H]3[C@H](O)[C@@H](O)C(O)O[C@@H]3CO)O[C@@H]2CO)[C@H](O)[C@@H](O)[C@@H]1N[C@H]1C=C(CO)[C@@H](O)[C@H](O)[C@H]1O` (stereo partly drawn) [ACARBOSE] registered a Ki of 0.99 µM. Further, the IC50 in experiment [4] worked out at 480 µM; in [3] it was 1.5 µM. Besides, the “competitive inhibition (Lineweaver-Burk)” value in the experiment filed under Rattus norvegicus [9] was “Active”.
